Values of other authors, collected in patent US20250339484A1, “COMPOSITION FOR BODY FAT REDUCTION CONTAINING EXTRACTS OF TARAXACUM PLATYCARPUM AND LONICERAE JAPONICA AS ACTIVE INGREDIENTS” (BOINBIO-CONVERGENCE CO., LTD., priority 2022, published 2025).

Conditions: clinical trials, about 3 g per day, after 3 months

## CCCC/C=C/C=C/C=C\CCCCCCCC(=O)O [CLA, conjugated linolenic acid]
  body weight reduction (average): 2.5 kg
